According to patent US20120231482A1, “METHOD, KIT OR DIAGNOSTIC FOR THE DETECTION OF REAGENTS WHICH INDUCE ALTERED CONTRACTILITY” (THE JOHNS HOPKINS UNIVERSITY, priority 2009, published 2012):

Key:
actin = biological target: T1, actin (Rattus norvegicus, UniProt P68035); assay: Gel shift assay, reducing/non-reducing western blot of cardiac myofibrils; type: biochemical; details: for actin higher molecular weight forms: non-reducing, lost with 5 mM DTT
T1 construct: Rat myofibrillar preparations, as described in [7], were obtained from frozen ventricles (Pel Freez Biologicals); tissue Pel Freez Biologicals; host or cells: myofibrils from frozen rat ventricles
Procedure: (§1) FIG. 4. Validation and characterizations of HNO modifications. 1 μg of rat cardiac myofibrils treated with HNO donors or control compounds were separated under reducing or nonreducing conditions and western blots probed for candidate proteins tropomyosin, actin, myosin heavy chain, myosin light chain 1 (n=4). […] Silver stained gel analysis indicated a protein band with […] gel mobility that was lost with DTT.
FIG. 5. Evaluation of the interaction between actin and tropomyosin with NCA treatment. Purified rabbit skeletal tropomyosin (0.03 μg) and isolated rat cardiac myofibrils (1 μg) were treated with NCA or AS and evaluated by 1D non-reducing western blot probing for tropomyosin (A) and actin (B) (n=3). […] (C) Fluorescent DIGE analysis of samples from A and B independent labeled indicates NCA specific band (green) above purified TM (blue) and below AS treated myofibrils (red) (n=3). (D) MS analysis of the same gel region identified both tropomyosin and actin in non-reduced lane but not with DTT treatment (n=2).
Gel shift assay. 10 μg of rat myofibrils/treatment were diluted to 0.5 μg/μl in HEN including 0.1% (w/v) SDS and exposed to a treatment for 20 min at 37° C. Samples were diluted to 0.1 ug/ul in 1×LSD sample buffer, treated with 0, 5 or 100 mM DTT and separated by SDS PAGE. Proteins were silver stained or transferred to nitrocellulose and immunoblotted with primary antibodies for tropomyosin sarcomeric (CH1, Sigma-Aldrich Co., St. Louis, Mo., USA), actin (AC-40, Sigma-Aldrich Co., St. Louis, Mo., USA), myosin light chain 1 (MLM527, Abcam, Cambridge, Mass., USA) or myosin heavy chain (3-48, Abcam, Cambridge, Mass., USA). For some silver stained gel bands of interest in-gel digestion was done following the protocol outlined in Shevchenko et al.. Gel slices of interest were excised from the gels cut into 1 mm^3 pieces. Silver stained gel pieces were destained in 1:1(v/v) 30 mM Potassium ferricyanide and 100 mM Sodium thiosulfate and wash three times with ddH2O. Gel pieces were dehydrated in 100% acetonitrile and reswelled in 10 mM DTT and incubated at 55° C. for 1 hour. After the DTT solution was removed, a solution of 55 mM iodoacetimide was added and gel slices were incubated at room temperature protected from light. Gel slices were then washed 3 times with 50% (v/v) ACN, 25 mM (NH4)HCO3 and then fully dehydrated in 100% ACN and dried in a speed vac. Gel pieces were reswelled in a 12.5 ng/μL trypsin (Promega, Madison Wis. USA) solution containing 25 mM (NH4)HCO3 and incubated at 37° C. for >16 hours. Digested peptides were extracted by addition of 5% (v/v) formic acid and incubation for 15 min followed by addition of an equal volume of 100% ACN and 15 min incubation, this step was repeated and the extracts were combined. […]

intact trabeculae = assay: Steady-state force-[Ca2+]i relationship in intact trabeculae (tetanized with ryanodine); type: cell-based, rat; set-up: [Ca2+]i required for 50% of activation (Ca50): unit not given here
[1] = biological target: T2, myosin heavy chain and light chain 1 (Rattus norvegicus, UniProt P02563+P16409); assay: Gel shift assay, reducing/non-reducing western blot of cardiac myofibrils; type: biochemical; details: non-reducing; lost with 5 mM DTT
T2 construct: 1 μg of rat cardiac myofibrils treated with HNO donors or control compounds; tissue Pel Freez Biologicals; host or cells: myofibrils from frozen rat ventricles
T2 sequence (P02563 whole entry): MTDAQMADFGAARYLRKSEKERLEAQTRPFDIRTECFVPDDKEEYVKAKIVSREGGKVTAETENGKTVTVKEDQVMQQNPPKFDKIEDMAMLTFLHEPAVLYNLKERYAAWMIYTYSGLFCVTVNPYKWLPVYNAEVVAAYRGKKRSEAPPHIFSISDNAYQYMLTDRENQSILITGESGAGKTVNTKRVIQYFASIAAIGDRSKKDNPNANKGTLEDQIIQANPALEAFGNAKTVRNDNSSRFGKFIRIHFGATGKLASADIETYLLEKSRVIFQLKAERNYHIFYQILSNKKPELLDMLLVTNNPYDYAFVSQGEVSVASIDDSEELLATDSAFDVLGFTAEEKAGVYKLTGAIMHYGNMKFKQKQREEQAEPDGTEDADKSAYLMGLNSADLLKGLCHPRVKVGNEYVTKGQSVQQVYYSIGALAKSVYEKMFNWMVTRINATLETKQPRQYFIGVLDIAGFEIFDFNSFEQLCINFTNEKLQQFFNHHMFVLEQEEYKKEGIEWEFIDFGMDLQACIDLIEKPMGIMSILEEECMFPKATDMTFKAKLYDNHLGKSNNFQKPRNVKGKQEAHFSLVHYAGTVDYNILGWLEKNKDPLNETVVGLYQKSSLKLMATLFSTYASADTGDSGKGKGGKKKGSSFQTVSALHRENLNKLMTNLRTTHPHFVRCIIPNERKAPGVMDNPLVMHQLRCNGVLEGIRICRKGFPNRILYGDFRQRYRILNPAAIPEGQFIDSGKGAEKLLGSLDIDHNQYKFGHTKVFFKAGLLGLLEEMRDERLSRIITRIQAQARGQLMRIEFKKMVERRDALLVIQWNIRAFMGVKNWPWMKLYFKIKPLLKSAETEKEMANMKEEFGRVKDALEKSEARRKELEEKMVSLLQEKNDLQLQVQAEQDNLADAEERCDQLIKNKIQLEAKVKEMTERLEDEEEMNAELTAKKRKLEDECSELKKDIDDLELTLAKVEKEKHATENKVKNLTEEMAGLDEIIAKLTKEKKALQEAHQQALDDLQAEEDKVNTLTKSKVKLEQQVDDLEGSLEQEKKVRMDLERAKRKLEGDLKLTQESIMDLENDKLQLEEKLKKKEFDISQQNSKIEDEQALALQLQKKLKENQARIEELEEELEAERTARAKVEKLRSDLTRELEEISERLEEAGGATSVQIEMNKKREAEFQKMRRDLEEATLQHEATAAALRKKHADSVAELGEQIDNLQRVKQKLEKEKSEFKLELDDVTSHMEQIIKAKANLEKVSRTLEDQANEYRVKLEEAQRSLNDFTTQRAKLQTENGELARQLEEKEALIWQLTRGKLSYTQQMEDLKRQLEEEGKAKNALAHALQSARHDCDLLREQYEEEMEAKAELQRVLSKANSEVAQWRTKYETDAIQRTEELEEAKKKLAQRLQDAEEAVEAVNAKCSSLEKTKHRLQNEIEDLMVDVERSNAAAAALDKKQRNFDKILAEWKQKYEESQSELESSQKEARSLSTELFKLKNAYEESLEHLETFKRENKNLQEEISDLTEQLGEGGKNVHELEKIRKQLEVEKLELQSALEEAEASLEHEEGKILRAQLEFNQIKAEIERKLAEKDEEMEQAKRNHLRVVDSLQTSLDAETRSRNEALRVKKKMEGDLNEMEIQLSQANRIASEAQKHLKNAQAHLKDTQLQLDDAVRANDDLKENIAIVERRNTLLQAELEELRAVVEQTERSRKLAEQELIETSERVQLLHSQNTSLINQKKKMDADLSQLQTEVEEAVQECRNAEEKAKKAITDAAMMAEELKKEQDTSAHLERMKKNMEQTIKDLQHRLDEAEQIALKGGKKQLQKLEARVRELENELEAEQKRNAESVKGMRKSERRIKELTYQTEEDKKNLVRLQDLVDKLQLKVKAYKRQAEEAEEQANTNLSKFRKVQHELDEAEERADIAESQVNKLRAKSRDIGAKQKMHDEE
T2 sequence (P16409 2-200 limits assumed): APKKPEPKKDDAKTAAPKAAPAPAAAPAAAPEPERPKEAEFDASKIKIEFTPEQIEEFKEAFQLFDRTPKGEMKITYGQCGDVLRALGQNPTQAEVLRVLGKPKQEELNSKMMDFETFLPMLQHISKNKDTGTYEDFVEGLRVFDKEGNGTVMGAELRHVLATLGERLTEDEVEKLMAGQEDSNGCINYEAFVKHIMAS
T2 sequence (P08733 2-166 partner limits assumed): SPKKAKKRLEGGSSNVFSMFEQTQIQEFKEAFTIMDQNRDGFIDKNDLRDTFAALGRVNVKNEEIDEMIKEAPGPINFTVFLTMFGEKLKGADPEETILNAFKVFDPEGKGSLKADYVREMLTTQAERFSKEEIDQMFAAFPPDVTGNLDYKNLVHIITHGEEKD
Procedure: as §1
Gel shift assay. 10 μg of rat myofibrils/treatment were diluted to 0.5 μg/μl in HEN including 0.1% (w/v) SDS and exposed to a treatment for 20 min at 37° C. Samples were diluted to 0.1 ug/ul in 1×LSD sample buffer, treated with 0, 5 or 100 mM DTT and separated by SDS PAGE. Proteins were silver stained or transferred to nitrocellulose and immunoblotted with primary antibodies for tropomyosin sarcomeric (CH1, Sigma-Aldrich Co., St. Louis, Mo., USA), actin (AC-40, Sigma-Aldrich Co., St. Louis, Mo., USA), myosin light chain 1 (MLM527, Abcam, Cambridge, Mass., USA) or myosin heavy chain (3-48, Abcam, Cambridge, Mass., USA). For some silver stained gel bands of interest in-gel digestion was done following the protocol outlined in Shevchenko et al.. Gel slices of interest were excised from the gels cut into 1 mm^3 pieces. Silver stained gel pieces were destained in 1:1(v/v) 30 mM Potassium ferricyanide and 100 mM Sodium thiosulfate and wash three times with ddH2O. […]

MLC1 = biological target: T3, MLC1 (Rattus norvegicus, UniProt P02600); assay: 2D gel shift western blot of skeletal myofibrils; type: biochemical; details: skeletal samples
T3 construct: using 10 μg of skeletal or cardiac myofibrils; from tissue; host or cells: skeletal muscle myofibrils
T3 sequence (P02600 whole entry): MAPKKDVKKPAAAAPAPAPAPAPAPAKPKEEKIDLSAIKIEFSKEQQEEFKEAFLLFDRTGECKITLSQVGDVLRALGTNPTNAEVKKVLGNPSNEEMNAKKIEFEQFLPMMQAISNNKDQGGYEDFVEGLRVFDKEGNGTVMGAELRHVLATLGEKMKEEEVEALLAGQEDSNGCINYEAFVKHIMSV
Description: FIG. 6. MLC1 Cys81 necessary for increase in Fmax induced by treatment with HNO donors. (a) Sequence alignment comparing isoforms of rat cardiac (SEQ ID NO:16) and skeletal MLC1 (SEQ ID NO:17) in the region surrounding cardiac Cys81. (b) Steady-state force-[Ca^2+]i relations in control (o) versus NCA-treated (•) from cardiac or skeletal trabeculae indicating loss of increase in maximum force with loss of Cys81 in skeletal isoform with NCA (n=5, each group). (c) 2D Gel shift assay (non-reduced, NR and reduced, DTT) using 10 μg of skeletal or cardiac myofibrils indicating loss of higher molecular weight forms of MLC1 in skeletal HNO treated preparations while maintaining higher molecular weight form of TM (n=3).
Gel shift assay. 10 μg of rat myofibrils/treatment were diluted to 0.5 μg/μl in HEN including 0.1% (w/v) SDS and exposed to a treatment for 20 min at 37° C. Samples were diluted to 0.1 ug/ul in 1×LSD sample buffer, treated with 0, 5 or 100 mM DTT and separated by SDS PAGE. Proteins were silver stained or transferred to nitrocellulose and immunoblotted with primary antibodies for tropomyosin sarcomeric (CH1, Sigma-Aldrich Co., St. Louis, Mo., USA), actin (AC-40, Sigma-Aldrich Co., St. Louis, Mo., USA), myosin light chain 1 (MLM527, Abcam, Cambridge, Mass., USA) or myosin heavy chain (3-48, Abcam, Cambridge, Mass., USA). […]

[2] = AS applied to isolated trebecula or skinned muscle preparations

`CC(=O)OC1(N=O)CCCCC1` [NCA, 1-nitrosocyclohexylacetate] was tested, and the “actin higher molecular weight forms” value (actin) was “approximately 80 kDa”, the “antibody epitope binding of monomeric actin” value (actin; western blot) was “loss of antibody epitope binding” and the Hill (intact trabeculae; NCA 20 μmol/L, intact muscles) was 4.92±0.84. For the same compound, the “[Ca2+]i required for 50% of activation (Ca50)” value (intact trabeculae; NCA 20 μmol/L, intact muscles) was 0.42±0.01, the “maximal Ca2+-activated force (Fmax)” value (intact trabeculae; NCA 20 μmol/L, intact muscles) was 123±18 mN/mm^2 and the MLC1 homodimer population [1] was ~50 kDa. For the same compound, the “higher molecular weight forms of MLC1” value (MLC1) was “absence of higher molecular weight forms of MLC1”.

In the case of `[Na+].[Na+].[O-][N+]([O-])=NO` [AS, Angeli's Salt], the “actin higher molecular weight forms” value (actin) is reported as “approximately 80 kDa”, the Ca50 (intact trabeculae; [2]) is reported as “without altering” and the Hill coefficient (intact trabeculae; [2]) is reported as “without altering”. For the same compound, the “maximum force of contraction” value (intact trabeculae; [2]) was “increase” and the MLC1 homodimer population [1] was ~50 kDa.
